Source: patent US9557321B2, “Method for screening drugs for suppressing inflammasome activity” (KYOTO UNIVERSITY, priority 2010, dated 2017)
Residues, ends and D or L forms follow the SMILES beside them. *: point of attachment. Cbz = O=C(OCc1ccccc1)*

Legend:
[1] = system: macrophage MT-1 induced from iPS cells (mutant NLRP3 gene); test: amount of IL-6 secretion from LPS-stimulated macrophage MT-1 (Human Th1/Th2 11plex Kit); details: 100 ng/ml IL-1Ra, 12 μM Bay11-7028 or 10 μM Parthenolide; two hours, then drug and LPS (1 μg/ml) four hours; FIG. 5C
[2] = system: macrophage MT-1 induced from iPS cells (mutant NLRP3 gene); details: for amount of secretion of IL-1β: 100 ng/ml IL-1Ra, 12 μM Bay11-7028, 50 μM CA074Me or 10 μM Parthenolide, two hours, then drug and LPS (1 μg/ml) four hours, FIG. 5A; for amount of IL-1β secretion: each concentration of drug, cultured two hours, then drug and LPS (1 μg/ml) another four hours, FIG. 4
[3] = system: macrophage MT-1 induced from iPS cells (mutant NLRP3 gene); test: amount of IL-8 secretion from LPS-stimulated macrophage MT-1 (Human Th1/Th2 11plex Kit); details: 100 ng/ml IL-1Ra, 12 μM Bay11-7028 or 10 μM Parthenolide; two hours, then drug and LPS (1 μg/ml) four hours; FIG. 5B

Compound	amount of secretion of IL-6 [1]	amount of secretion of IL-1β [2]	amount of secretion of IL-8 [3]	amount of IL-1β secretion [2]
Cc1ccc(S(=O)(=O)/C=C/C#N)cc1 [Bay11-7028]	inhibited	inhibited	inhibited	–
CCCNC(=O)[C@H]1O[C@@H]1C(=O)N[C@H](C(=O)N1CCC[C@H]1C(=O)OC)[C@@H](C)CC [CA074Me]	–	specifically inhibited	–	–
C[C@@H]1C[C@@H]([C@H](O)CC2CC(=O)NC(=O)C2)C(=O)[C@@H](C)C1 [CHX, cycloheximide]	–	–	–	inhibited IL-1β secretion in a dose dependent manner
CC(C)C[C@@H](C=O)NC(=O)[C@H](CC(C)C)NC(=O)[C@H](CC(C)C)NC(=O)OCc1ccccc1 [MG132] (Cbz-Leu-Leu-Leu-aldehyde)	–	–	–	inhibited IL-1β secretion in a dose dependent manner
IL-1Ra: interleukin 1 receptor antagonist (R&D Systems)	did not change	did not change	did not change	–
